Laboratory results from patent US20150175585A1, “FUSED QUINONIC COMPOUNDS” (CENTRO ATLANTICO DEL MEDICAMENTO S.A (CEAMED, S.A.), priority 2012, published 2015).
Where two headings read alike, the source gives them in different places.

Legend:
[1] = system: STAT5; experiment: STAT5 phosphorylation western blot assay; type: cell-based, human; conditions: 10 microM, HEL or K562 cells (table does not say which)
Experimental: (§1) The Human Erythroleukemia cell line HEL and the human Chronic Myeloid Leukemia cell line K562 were cultured in RPM I 1640 medium containing 10% fetal bovine serum (FBS) and 50 U/ml penicillin/50 U/ml streptomycin at 37° C. in a 5% CO2 humidified atmosphere to a density of 300.000 viable cells/mL in presence of WP1066 (positive control of phosphorylation inhibition) (Verstovsek et al., 2008) or CM-363 at concentrations of 1, 5 and 10 μM. Cell culture reagents were all obtained from BioWhittaker® (Lonza, Verniers, Belgium). Cell growth and viability was determined by propidium iodide (fluorescent dye) exclusion method using the Accuchip 4× Counting Kit and the ADAM automatic cell counter (Digital-Bio, NanoEntek, Ic., Washington St, Mass., USA).As a control of unspecific phosphorylation, some cells in each experiment were exposed to vehicle (negative control of phosphorylation inhibition) (0.1% DMSO).
(§2) For total protein extraction, cells were scraped with RIPA 1× lysis buffer (25 mM Tris-HCl pH 7.6, 150 mM NaCl, 1% NP-40, 1% sodium deoxycholate, 0.1% SDS, no. 89900, Thermo Scientific, Rockford, Ill., USA) supplemented with 1× protease and 1× phosphatase inhibitor cocktails (100× Halt™ Protease Inhibitor Cocktail, no. 87786 and 100× Halt Phosphatase Inhibitor Cocktail, no. 78420, both from Thermo Scientific, Rockford, Ill., USA). An aliquot of each extract was preserved for protein quantification by bicinchoninic acid assay (Pierce® BCA Protein Assay Kit, no. 23225, Thermo Scientific, Rockford, Ill., USA).
(§3) Proteins were solubilized in sample buffer containing 0.0625 M Tris-HCl, pH 6.8, 2.3% (wt/vol) SDS, 10% (vol/vol) glycerol, 5% (vol/vol) f3-mercaptoethanol, and 0.001% (wt/vol) bromophenol blue and boiled at 95° C. for 5 min. Equal amounts (50 μg) of each sample were electrophoresed on 8-10% sodium dodecyl sulfate-polyacrylamide gel electrophoresis (SDS-PAGE) and transferred to nitrocellulose membranes (iBlot® Gel Transfer Stacks, Nitrocellulose, no. IB4010-02, Invitrogen, Barcelona, Spain) as described previously (Fernandez, L, et al., Endocrinology, 13, 1815-1824, 1998; B. Guerra et al., J. Neurochem, 91, 99-109, 2004; B. Guerra et al., J. Appl. Physiol., 102, 1786-1792, 2007; B. Guerra et al., J. Appl. Physiol., 111, 715-725, 2011). The nitrocellulose membranes were then removed from the iBlot® Dry GelTransfer Device (no. IB1001EU, Invitrogen, Barcelona, Spain) and placed in a Ponceau S staining solution (0.5% Ponceau S and 1% glacial acetic acid in water) to verify equal loading of protein in the control and treated samples. After the membranes were stained for 5 min, they were rinsed for 2 min and examined. Equal loading of protein was verified, and the membranes were rinsed for an additional 10 min and immunoscreened. Membranes were blocked with 5% blotting grade blocker nonfat dry milk in Tris Buffered Saline with 0.05% Tween 20 (TBST; blotto-blocking buffer) for at least […]) at room temperature. They were washed thrice in TBS with 0.1% Tween 20 (TBST-0.1). Next, the membranes were incubated over night at 4° C. with the appropriate anti-phospho-antibodies (described below) all diluted (1:1000) in 1% bovine serum albumin (BSA)-1% blotto in TBST (BSA-blotto blocking buffer). […] Membranes were stripped of bound antibodies by incubation in stripping buffer (Restore™ Western Blot Stripping Buffer, no. 21059, Thermo Scientific, Rockford, Ill., USA) at room temperature for 30 min with agitation. Membranes were washed for 3×10 min in TBST-0.1, blocked with blotto-blocking buffer for at least 1 h and re-probed with the corresponding anti-total kinase antibodies (described below) all diluted (1:1000) in blotto-blocking buffer. […]

[2] = system: HEL cells; experiment: HEL-based MTT cell viability assay; set-up: species or system human; conditions: 48 h, read-out: Activity (IC50, reduction of cell viability)
Experimental: Cell viability was assayed by measuring the mitochondrial reduction of the tetrazolium salt 3-(4,5-methyltiazol-2yl)-2,5diphenyl-tetrazolium bromide] (MTT) (Applichen; A2231,0010) (Mosmann T. J Immunol Methods. 1983 16; 65(1-2):55-63; Chuan Y-C et al 2010. Oncogene. 29 (10), 1531-1542. Cells were seeded in 96-well plates in medium supplemented with 10% FBS (Lonza Cat. No: 14-502F), 2 mM L-Glut (Lonza Cat. No: BE17-605E) and 100 U/ml PEST (Lonza Cat. No: DE17-605E) at a cell density of 5000-20000 cells/well. Cells were seeded at a density according to their exponential growth phase. Vehicle (0.05% DMSO) or drug were added to culture medium at the indicated concentrations (10 to 0.01 microM) during 48 h. Then, MTT (0.3 mg/ml) was added to cells following by incubation for 2-4 h at 37° C. in the dark. The medium was then discarded and the formazan precipitate was solubilized by addition of 20% SDS (Sigma; L-5750) in 0.02N HCl (Panreac; 131020.1611) for 12-16 h. The optical density was measured at 595 nm with the iMark Microplate Reader (BioRad, USA). Data was expressed as percent growth above the level in controls and the results in figures were plotted as means±SEM of each test point from 3 replicates.
Statistical analysis. The concentration of drug that provokes 50% reduction of cell viability (IC50) was determined by using non-linear regression analysis and data were fitted to a log concentration vs normalized response curve in GraphPad software v5 (San Diego, Calif.).

[3] = system: STAT5 transcription (pSPI-GLE1-luc) in HEK-GHR cells; experiment: HEK-GHR STAT5 transcription assay (luciferase reporter, rhGH stimulated); type: cell-based, human; conditions: compound 45 minutes before 50 nM rhGH, six hours, read-out: Activity (IC50, reduction of luciferase activity)
Description: Plasmids: The full-length GHR was subcloned into pcDNA1/ampicillin (Invitrogen) as described previously (Ross R J, Esposito N, Shen X Y, et al., Mol Endocrinol 1997, 11:265-73). The pSPI-GLE1 (serine protease inhibitor 2.1 GAS-like element 1)-luc reporter construct was generated by subcloning the Stat5-binding element from serine protease inhibitor gene together with a minimal thymidine kinase promoter into the pGL2 plasmid (Promega), which contains the firefly luciferase cDNA (Wood T J, Sliva D, Lobie P E, et al. J Biol Chem 1995, 270:9448-53).
Cell culture: HEK-GHR cell line was maintained in Dulbecco's Modified Eagle Medium (DMEM)/F12 supplemented with 10% fetal bovine serum (FBS) and 50 U/ml penicillin/50 U/ml streptomycin. The cells were maintained in a humidified incubator with 5% CO2 at 37° C. Cell culture reagents were obtained from PAA laboratories. The HEK-GHR cell line is a stable clone generated and kindly donated by Prof. Richard Ross (Clinical Sciences, Northern General Hospital, Sheffield, UK). Briefly, HEK-GHR cell line was generated in HEK 293 cells (human kidney embryonal cell line) by transfection with the calcium phosphate procedure of the GHR plasmid with pcDNA3/Neo (Invitrogen). Selection was made using G418 (400 ug/ml, Sigma) (Maamra M, Finidori J, Von Laue S, et al., J Biol Chem 1999, 274(21):14791-8).
Luciferase reporter assay: Transcription assays were performed in HEK-GHR. The HEK-GHR cells were co-transfected with Stat5 luciferase (pSPI-GLE1-luc) reporter vector together with a plasmid constitutively expressing beta-galactosidase by using Metafectene Pro as described by the manufacturer (Biontex Laboratories GmbH, Munich, Germany). Following transfection, HEK-GHR cells were serum-starved for 20 h. Cells were then treated with vehicle (0.1% DMSO) or the indicated compound for 45 minutes prior to the addition of 50 nM recombinant human Growth Hormone (rhGH) (Norditropin, Novo Nordisk) to the medium. Six hours following rhGH addition, cells were harvested with Passive Lysis Buffer (Promega), and levels of luciferase were measured using Luciferase Assay System as described by the manufacturer (Promega). The Galacto-Light Plus System (Applied Biosystems) was used to measure beta-galactosidase activity.
Statistical analysis. The concentration of drug that provokes 50% reduction of luciferase activity (IC50) was determined by using non-linear regression analysis and data were fitted to a log concentration vs normalized response curve in GraphPad software v5 (San Diego, Calif.).

[4] = system: JAK2; experiment: JAK2 phosphorylation western blot assay; type: cell-based, human; conditions: 10 microM, HEL or K562 cells (table does not say which)
Experimental: as §1, §2, §3

Row | SMILES | Activity (inhibition of STAT5 phosphorylation) [1] | IC50 [2] | IC50 [3] | Activity (inhibition of JAK2 phosphorylation) [4] | IC50 ([2]; Homo sapiens) | IC50 ([3]; Homo sapiens)
1 | CC1(C)CC(=O)C2=C(C1)NC1=C(C(=O)c3cn[nH]c3C1=O)C2c1ccccc1 (stereo not shown) [Compound 5] | + (+represents an inhibition at 10 microM > 50%) | < 3000 nM | < 5000 nM | + (+represents an inhibition at 10 microM > 30%) | – | –
2 | O=C1CCCC2=C1C(c1cccs1)C1=C(N2)C(=O)c2ccccc2C1=O (stereo not shown) [Compound 6, 12-(thiophen-2-yl)-3,4-dihydrobenzo[b]acridine-1,6,11(2H,5H,12H)-trione] | ++ (++represents an inhibition at 10 microM > 50%) | – | – | + (+represents an inhibition at 10 microM > 30%) | < 3000 nM | < 5000 nM
3 | CC1(C)CC(=O)C2=C(C1)OC1=C(C(=O)c3ccccc3C1=O)C2c1cccs1 (stereo not shown) [Compound 7, 3,3-dimethyl-12-(thiophen-2-yl)-3,4-dihydro-1H-benzo[b]xanthene-1,6,11(2H,12H)-trione] | +++ (+++represents an inhibition at 10 microM > 75%) | – | – | +++ (+++represents an inhibition at 10 microM > 75%) | < 10000 nM | < 1000 nM
4 | CC1(C)CC(=O)C2=C(C1)NC1=C(C(=O)c3ncncc3C1=O)C2c1ccccc1 (stereo not shown) [Compound 8] | + (+represents an inhibition at 10 microM > 50%) | < 3000 nM | < 5000 nM | +++ (+++represents an inhibition at 10 microM > 75%) | – | –
5 | O=C1CCCC2=C1C(c1ccc(Br)cc1)C1=C(O2)C(=O)c2ccccc2C1=O (stereo not shown) [Compound 10] | + (+represents an inhibition at 10 microM > 50%) | < 3000 nM | < 1000 nM | ++ (++represents an inhibition at 10 microM > 50%) | – | –
6 | O=C1CCCC2=C1C(c1ccccn1)C1=C(O2)C(=O)c2ccccc2C1=O (stereo not shown) [Compound 11, 12-(pyridin-2-yl)-3,4-dihydro-1H-benzo[b]xanthene-1,6,11(2H,12H)-trione] | + (+represents an inhibition at 10 microM > 50%) | – | – | – | < 10000 nM | < 1000 nM
7 | CC1(C)CC(=O)C2=C(C1)OC1=C(C(=O)c3ccccc3C1=O)C2c1ccccn1 (stereo not shown) [Compound 12] | ++ (++represents an inhibition at 10 microM > 50%) | < 3000 nM | < 1000 nM | ++ (++represents an inhibition at 10 microM > 50%) | – | –
8 | COc1ccc(C2C3=C(CCCC3=O)OC3=C2C(=O)c2ccccc2C3=O)cc1OC (stereo not shown) [Compound 15] | ++ (++represents an inhibition at 10 microM > 50%) | < 1000 nM | < 10000 nM | ++ (++represents an inhibition at 10 microM > 50%) | – | –
9 | O=C1CCCC2=C1C(c1cccnc1)C1=C(N2)C(=O)c2ccccc2C1=O (stereo not shown) [Compound 17] | + (+represents an inhibition at 10 microM > 50%) | < 3000 nM | < 5000 nM | +++ (+++represents an inhibition at 10 microM > 75%) | – | –
10 | CC1(C)CC(=O)C2=C(C1)NC1=C(C(=O)c3ccccc3C1=O)C2c1cnc(Cl)nc1 (stereo not shown) [Compound 19] | – | < 3000 nM | < 5000 nM | ++ (++represents an inhibition at 10 microM > 50%) | – | –
11 | CC1(C)CC(=O)C2=C(C1)OC1=C(C(=O)c3ccccc3C1=O)C2c1ccco1 (stereo not shown) [Compound 20, 12-(furan-2-yl)-3,3-dimethyl-3,4-dihydro-1H-benzo[b]xanthene-1,6,11(2H,12H)-trione] | ++ (++represents an inhibition at 10 microM > 50%) | – | – | +++ (+++represents an inhibition at 10 microM > 75%) | < 1000 nM | < 1000 nM
12 | CC1(C)CC(=O)C2=C(C1)OC1=C(C(=O)c3ccccc3C1=O)C2c1ccoc1 (stereo not shown) [Compound 21] | ++ (++represents an inhibition at 10 microM > 50%) | < 3000 nM | < 1000 nM | + (+represents an inhibition at 10 microM > 30%) | – | –
